Reference: article PMC5217663, “Iridoids from Canthium subcordatum iso-butanol fraction with potent biological activities” (BMC Complementary and Alternative Medicine, 2017)
In brackets after ≈: the same amount, converted by molar mass. Read-outs that look alike come from different tables or passages of the source.

Key:
[1] = system: Staphylococcus aureus ATCC 25923; test: microbe, parasite or virus in culture; format: cell-based; details: for MBC / MIC: Staphylococcus aureus; for MBC: ATCC25923; for MIC: ATCC25923, 24 h
Procedure: (§1) A total of six bacterial strains were tested for their susceptibility to compounds and these strains were taken from our laboratory collection (kindly provided by Dr. T. Ramamurthy, NICED, Kolkata). Among the clinical strains of Vibrio cholerae used in this study, strains NB2 and SG24(1) belonged to O1 and O139 serotypes, respectively. […] The bacterial strains were maintained on agar slant at 4 °C and subcultured on a fresh appropriate agar plates 24 h prior to any antibacterial test. The Mueller Hinton Agar (MHA) was used for the activation of bacteria. The Mueller Hinton Broth (MHB) and nutrient agar (Hi-Media) were used for the MIC and MBC determinations respectively.
(§2) MIC values were determined by a broth micro-dilution method as described earlier [14] with slight modifications. […] Then, 100 μl of each concentration was added in each well (96-well microplate) containing 95 μl of MHB and 5 μl of inoculums (at 1.5 × 10^6 CFU/ml) for final concentrations varying from 0.25–512 μg/ml. […] The plates were covered with sterile lids, then the contents of each well were mixed using a shaker and incubated at 35 °C for 24 h. […] MIC values were defined as the lowest sample concentrations that prevented this change in color indicating an inhibition of visible growth. Viable microorganisms reduced the yellow dye to a pink color. […] The lowest concentrations that yielded no growth after this subculturing were taken as the MBC values [15]. All the analyses were carried out in triplicate.

Shigella flexneri SDINT = test: microbe, parasite or virus in culture; format: cell-based
Procedure: as §1, §2

Vibrio cholerae PC2 = test: Broth microdilution MIC/MBC; format: cell-based; details: for MBC / MBC/MIC: PC2
Procedure: as §1, §2

Vibrio cholerae CO6 = test: Broth microdilution MIC/MBC; format: cell-based; details: for MBC / MBC/MIC: CO6; for MIC: CO6, 24 h
Procedure: as §1, §2

Vibrio cholerae SG24 (1) = test: Broth microdilution MIC/MBC; format: cell-based; details: for MBC / MIC: Vibrio cholerae; for MBC/MIC: Vibrio cholerae SG24 (1); for MIC: 24 h
Procedure: as §1, §2

Vibrio cholerae NB2 = test: Broth microdilution MIC/MBC; format: cell-based; details: for MBC / MBC/MIC: NB2
Procedure: as §1, §2

[2] = system: Vibrio cholerae, Shigella flexneri and Staphylococcus aureus; test: Broth microdilution MIC/MBC, summary over all six tested strains; format: cell-based; details: for MIC: read-out: antibacterial activity class (pure compounds)
Procedure: as §1, §2

[3] = DPPH free radical scavenging assay; details: 30 min, room temperature, 517 nm
Procedure: The free radical scavenging activity of extracts as well as most of their isolated compounds was performed according to Brand-Williams et al. with slight modifications. Briefly, different concentrations (10 to 2000 μg/ml) of extracts/compounds and vitamin C (positive control) were thoroughly mixed with 3 ml of methanolic DPPH solution (20 mg/l) in test-tubes and the resulting solution was kept standing for 30 min at room temperature before the optical density (OD) was measured at 517 nm. The percentage radical scavenging activity was calculated from the following formula: % scavenging [DPPH] = [(A0–A1)/A0] × 100 [16]. Where A0 was the absorbance of the negative control (methanolic DPPH solution) and A1 was the absorbance in the presence of the samples. IC50 value was determined from the graph obtained using standard vitamin C by using the “y = mx + c” formula from the slope of the graph. All the analyses were carried out in triplicate.

[4] = Gallic acid equivalent antioxidant capacity (GAEAC) assay; details: ABTS/laccase, 420 nm, 240 s
Procedure: The GAEAC test was done as previously described [17] with slight modifications. In a quartz cuvette, to 950 μl acetate buffer (pH =5.0, 100 mM), the following were added: 20 μl laccase (1 mM stock solution), 20 μl test sample, 10 μl ABTS (2,2’-azinobis(3-ethylbenzothiazoline-6-sulfonic acid) (74 mM stock solution). The laccase were purified from Sclerotinia sclerotiorum according to the protocol described [18]. The sample concentrations in the assay mixture were 800, 400, 200, 100, 10 μg/ml for the extracts and 200, 100, 50, 25, 125.5 μg/ml for the isolated compounds. The content of the generated ABTS^●+ radical was measured at 420 nm after 240 s reaction time and was converted to gallic acid equivalents by the use of a calibration curve (Pearson’s correlation coefficient: r = 0.996) constructed with 0, 4, 10, 14, 28, 56, 84 μM gallic acid standards rather than Trolox. Experiments were done in triplicate.

Compound | MBC/MIC [1] | MBC [1] [µg/mL] | MIC [1] [µg/mL] | MBC (Shigella flexneri SDINT; Shigella flexneri) [µg/mL] | MIC (Shigella flexneri SDINT; Shigella flexneri, 24 h) [µg/mL] | MBC (Vibrio cholerae PC2; Vibrio cholerae) [µg/mL] | MIC (Vibrio cholerae PC2; Vibrio cholerae, PC2, 24 h) [µg/mL] | MBC (Vibrio cholerae CO6) [µg/mL] | MBC/MIC (Vibrio cholerae CO6) | MIC (Vibrio cholerae CO6) [µg/mL] | MBC (Vibrio cholerae SG24 (1)) [µg/mL] | MIC (Vibrio cholerae SG24 (1)) [µg/mL] | MBC (Vibrio cholerae NB2; Vibrio cholerae) [µg/mL] | MIC (Vibrio cholerae NB2; Vibrio cholerae, NB2, 24 h) [µg/mL] | MBC/MIC (Shigella flexneri SDINT) | MBC/MIC (Vibrio cholerae PC2; Vibrio cholerae) | MBC/MIC (Vibrio cholerae NB2; Vibrio cholerae) | MIC [2] [µg/mL] | other results
CC1(C)S[C@@H]2[C@H](NC(=O)[C@H](N)c3ccccc3)C(=O)N2[C@H]1C(=O)O [Ampicillin, reference compound] | 1 | 8 (≈ 22.9 µM) | 8 (≈ 22.9 µM) | > 512 | > 512 | > 512 | > 512 | 16 (≈ 45.8 µM) | 1 | 16 (≈ 45.8 µM) | 16 (≈ 45.8 µM) | 16 (≈ 45.8 µM) | > 512 | > 512 | – | – | – | – | MIC (Shigella flexneri SDINT): not active; MIC (Vibrio cholerae PC2; Vibrio cholerae PC2, 35 °C, 24 h): not active; MBC/MIC (Vibrio cholerae SG24 (1)): 1; MIC (Vibrio cholerae NB2; Vibrio cholerae NB2, 35 °C, 24 h): not active
COC(=O)C1=CO[C@@H](O)[C@@H]2C(COC(=O)C3=CO[C@@H](O)[C@@H]4C(COC(C)=O)=CC[C@H]34)=CC[C@H]12 [Compound 1, canthiumoside 1] | 1 | 32 (≈ 69.2 µM) | 32 (≈ 69.2 µM) | 64 (≈ 138 µM) | 32 (≈ 69.2 µM) | 64 (≈ 138 µM) | 64 (≈ 138 µM) | 64 (≈ 138 µM) | 1 | 64 (≈ 138 µM) | 128 (≈ 277 µM) | 64 (≈ 138 µM) | 64 (≈ 138 µM) | 64 (≈ 138 µM) | 2 | 1 | 1 | 10 to 100 (≈ 21.6 to 216 µM) | MBC/MIC (Vibrio cholerae SG24 (1)): 2; EC50 (concentration scavenging 50% of DPPH radical) [3]: 2.03 µg/mL; GAEAC (gallic acid equivalent antioxidant capacity) [4]: 79.82 µg/mL; GAEAC (gallic acid equivalent antioxidant capacity) ([4]; listed as Canthiumoside 1): 79.82 to 92.35 µg/mL
COC(=O)C1=COC(O)C2C(COC(=O)C3=COC(OC4OC(CO)C(O)C(O)C4O)C4C(COC(C)=O)=CCC34)=CCC12 (stereo not drawn) [Compound 2, canthiumoside 2] | 1 | 64 (≈ 102 µM) | 64 (≈ 102 µM) | 256 (≈ 410 µM) | 128 (≈ 205 µM) | 256 (≈ 410 µM) | 256 (≈ 410 µM) | 256 (≈ 410 µM) | 2 | 128 (≈ 205 µM) | > 256 | 256 (≈ 410 µM) | 128 (≈ 205 µM) | 128 (≈ 205 µM) | 2 | 1 | 1 | > 100 | –
COC(=O)C1=COC(OC2OC(CO)C(O)C(O)C2O)C2C(COC(=O)C3=COC(OC4OC(CO)C(O)C(O)C4O)C4C(COC(C)=O)=CCC34)=CCC12 (stereo not drawn) [Compound 3, canthiumoside 3] | – | > 256 | 256 (≈ 325 µM) | > 256 | 256 (≈ 325 µM) | > 256 | 256 (≈ 325 µM) | 256 (≈ 325 µM) | 2 | 128 (≈ 163 µM) | – | > 256 | 256 (≈ 325 µM) | 256 (≈ 325 µM) | – | – | 1 | > 100 | tested organisms inhibited [2]: 83.33%
COC(=O)C1=COC(OC2OC(CO)C(O)C(O)C2O)C2C(COC(=O)C3=COC(OC4OC(CO)C(O)C(O)C4O)C4C(CO)=CCC34)=CCC12 (stereo not drawn) [Compound 4, canthiumoside 4] | – | – | – | – | – | – | – | – | – | – | – | – | – | – | – | – | – | – | EC50 (concentration scavenging 50% of DPPH radical) [3]: 178.57 µg/mL; GAEAC (gallic acid equivalent antioxidant capacity) [4]: 22.63 µg/mL
COC(=O)C1=COC(OC2OC(CO)C(O)C(O)C2O)C2C(COC(=O)C3=COC(OC(C)=O)C4C(C)CCC34)=CCC12 (stereo not drawn) [Compound 5a, canthiumoside 5a] | 1 | 128 (≈ 210 µM) | 128 (≈ 210 µM) | 128 (≈ 210 µM) | 128 (≈ 210 µM) | 256 (≈ 419 µM) | 128 (≈ 210 µM) | 256 (≈ 419 µM) | 2 | 128 (≈ 210 µM) | > 256 | 256 (≈ 419 µM) | 128 (≈ 210 µM) | 128 (≈ 210 µM) | 1 | 2 | 1 | > 100 | –
COC(=O)C1=CO[C@@H](O)[C@H]2[C@@H]1CC[C@]2(C)O [Compound 7, linearin] | – | – | – | – | – | – | – | – | – | – | – | – | – | – | – | – | – | – | MIC (range over the tested bacteria) ([2]; range over all tested strains): 8 to 64 µg/mL
COC(=O)C1=COC(OC2OC(CO)C(O)C(O)C2O)C2C1CCC2(C)O (stereo not drawn) [Compound 8, mussaenoside] | 2 | 128 (≈ 328 µM) | 64 (≈ 164 µM) | 256 (≈ 656 µM) | 128 (≈ 328 µM) | 256 (≈ 656 µM) | 128 (≈ 328 µM) | 256 (≈ 656 µM) | 1 | 256 (≈ 656 µM) | > 256 | 256 (≈ 656 µM) | > 256 | 128 (≈ 328 µM) | 2 | 2 | – | > 100 | –
COC(=O)C1=CO[C@@H](O[C@@H]2O[C@H](CO)[C@@H](O)[C@H](O)[C@H]2O)[C@H]2[C@@H]1[C@H](O)C[C@]2(C)O [Compound 9, shanzhiside methyl ester] | 2 | 256 (≈ 630 µM) | 128 (≈ 315 µM) | 256 (≈ 630 µM) | 128 (≈ 315 µM) | 256 (≈ 630 µM) | 256 (≈ 630 µM) | > 256 | – | 128 (≈ 315 µM) | 128 (≈ 315 µM) | 128 (≈ 315 µM) | 128 (≈ 315 µM) | 128 (≈ 315 µM) | 2 | 1 | 1 | > 100 | MBC/MIC (Vibrio cholerae SG24 (1)): 1
COC(=O)C1=CO[C@@H](O)[C@H]2[C@@H]1[C@H](O)C[C@]2(C)O [compound 6] | – | 64 (≈ 262 µM) | 32 (≈ 131 µM) | 64 (≈ 262 µM) | 32 (≈ 131 µM) | 256 (≈ 1050 µM) | 128 (≈ 524 µM) | 256 (≈ 1050 µM) | – | 256 (≈ 1050 µM) | 256 (≈ 1050 µM) | 128 (≈ 524 µM) | 256 (≈ 1050 µM) | 256 (≈ 1050 µM) | – | – | – | > 100 | –
COC(=O)C1=CO[C@@H](O)[C@H]2[C@@H]1CC[C@]2(C)O [compound 7] | – | 8 (≈ 35.1 µM) | 8 (≈ 35.1 µM) | 16 (≈ 70.1 µM) | 16 (≈ 70.1 µM) | 32 (≈ 140 µM) | 32 (≈ 140 µM) | 128 (≈ 561 µM) | – | 64 (≈ 280 µM) | 64 (≈ 280 µM) | 32 (≈ 140 µM) | 32 (≈ 140 µM) | 32 (≈ 140 µM) | – | – | – | 10 to 100 (≈ 43.8 to 438 µM) | –
O=C1O[C@H]([C@@H](O)CO)C(O)=C1O [vitamin C, reference compound] | – | – | – | – | – | – | – | – | – | – | – | – | – | – | – | – | – | – | EC50 (concentration scavenging 50% of DPPH radical) [3]: 1.74 µg/mL
